The record followed here is US6821980B1, “Substituted 5-benzyl-2,4-diaminopyrimidines” (Basilea Pharmaceutica AG, priority 1999, dated 2004).

Molecules are shown by their SMILES. Converted amounts (≈) assume the structure as drawn. Like-named read-outs stand apart in the source and are kept apart here.

Assay [1] addresses T1, purified DHFR of strain Sp1/1 of Streptococcus pneumoniae (Streptococcus pneumoniae serotype 4, UniProt Q54801).
T1 sequence (Q54801 1-168 I100L): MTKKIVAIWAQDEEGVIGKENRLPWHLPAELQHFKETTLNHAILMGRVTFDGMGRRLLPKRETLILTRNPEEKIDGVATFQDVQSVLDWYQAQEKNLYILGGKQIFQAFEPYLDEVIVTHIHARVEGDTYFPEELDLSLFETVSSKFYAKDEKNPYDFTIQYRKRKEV
The class given is biochemical. Conditions: IC50 against purified DHFR of strain Sp1/1.

For assay [2], the system named is Staphylococcus aureus 101. The assay can be described thus: MIC against Staphylococcus aureus 101. The class given is cell-based. Conditions: Staphylococcus aureus 101, MRSA- and trimethoprim-resistant, clinical isolate; for MIC: Table 2, read-out: MIC Sa101.
The target of assay [3] is purified DHFR of strain 157/4696 of Staphylococcus aureus (Staphylococcus aureus, UniProt P13955). The assay can be described thus: biochemical.
In assay [4] the test system is Streptococcus pneumoniae 1/1. The assay can be described thus: MIC against Streptococcus pneumoniae 1/1. It counts as cell-based.
[5] abbreviates: Table 2, Streptococcus pneumoniae 1/1, trimethoprim- and penicillin-resistant, serotype 6, clinical isolate, read-out: MIC Sp1/1.
The mark [6] stands for this setting: Streptococcus pneumoniae, 1/1, read-out: MIC Sp1/1.

Sequence of purified DHFR of strain 157/4696 of Staphylococcus aureus (P13955 whole entry): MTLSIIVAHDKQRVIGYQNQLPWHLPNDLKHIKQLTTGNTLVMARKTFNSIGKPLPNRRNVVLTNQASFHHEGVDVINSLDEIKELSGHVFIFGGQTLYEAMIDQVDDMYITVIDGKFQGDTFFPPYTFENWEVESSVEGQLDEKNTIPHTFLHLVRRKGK

On to `CCOc1cc(Cc2cnc(N)nc2N)cc(OCC)c1-c1ccc(N)nc1` [Example 04-q, 5-[4-(6-Amino-pyridin-3-yl)-3,5-diethoxy-benzyl]-pyrimidine-2,4-diamine], for which the results for the IC50 in assay [1] (Table 2) and in assay [3] were 69 nM and 1900 nM, respectively. Further, the values for the MIC in assay [2] and in assay [4] (setting [5]) were 8 µg/mL (≈ 21 µM) and 4 µg/mL (≈ 10.5 µM), respectively.
On the same counts, the results for `CCOc1cc(Cc2cnc(N)nc2N)cc(OCC)c1-c1ccc(N)c(F)c1` [Example 04-r, 5-(4′-Amino-2,6-diethoxy-3′-fluoro-biphenyl-4-3dmethyl)-Ryrimidine-2,4-diamine] are 85 nM, 3200 nM, 8 µg/mL (≈ 20.1 µM) and 4 µg/mL (≈ 10.1 µM).
On to `CCOc1cc(Cc2cnc(N)nc2N)cc(OCC)c1-c1cc(N)cc(F)c1` [Example 04-t, 5-(5′-Amino-2,6-diethoxy-3′-fluoro-biphenyl-4-ylmethyl)-pyrimidine-2,4-diamine], for which the IC50 is 31 nM in assay [1] (Table 2) and 1200 nM in assay [3]. For the same molecule, the MIC in assay [2] is 8 µg/mL (≈ 20.1 µM); in assay [4] (setting [5]), 2 µg/mL (≈ 5.03 µM).
Turning to `CCOc1cc(Cc2cnc(N)nc2N)cc(OCC)c1-c1cccc(C=O)c1` [Example 04-u, 4′-(2,4-Diamino-pyrimidin-5-ylmethyl)-2′,6′-diethoxy-biphenyl-3-carbaldehyde], the IC50 was determined as 65 nM in assay [1] (Table 2) and 1900 nM in assay [3]. Also, the MIC in assay [2] was determined as 8 µg/mL (≈ 20.4 µM); in assay [4] (setting [5]), 4 µg/mL (≈ 10.2 µM).
`CCOc1cc(Cc2cnc(N)nc2N)cc(OCC)c1-c1ccc(CNCC(F)(F)F)cc1` [Example 04-v, 5-[2,6-Diethoxy-4′-[(2,2,2-trifluoroethylamino)-methyl]-biphenyl-4-ylmethyl]-pyrimidine-2,4-diamine]: the IC50 was determined as 150 nM in assay [1] (Table 2) and 1300 nM in assay [3]. In addition, the MIC worked out at 8 µg/mL (≈ 16.8 µM) in assay [2] and 4 µg/mL (≈ 8.41 µM) in assay [4] (setting [5]).
In the case of `CCOc1cc(Cc2cnc(N)nc2N)cc(OCC)c1-c1ccc(CN2CCC(=O)N2)cc1` [Example 04-w, 1-[4′-(2,4-Diamino-pyrimidin-5-lmethyl)-2′,6′-diethoxy-biphenyl-4-ylmethyl]-pyrazolidin-3-one], the IC50 is 82 nM in assay [1] (Table 2) and 1200 nM in assay [3]. Besides, the MIC in assay [2] and in assay [4] (setting [5]) was 8 µg/mL (≈ 17.3 µM) throughout.
Consider `CCOc1cc(Cc2cnc(N)nc2N)cc(OCC)c1-c1cnc(CN2CCOCC2)nc1` [Example 04-x, 5-[3,5-Diethoxy-4-(2-morpholin-4-ylmethyl-pyrimidin-5-yl)-benzyl]-pyrimidine-2,4-diamine], for which the IC50 turned out to be 80 nM in assay [1] (Table 2) and 7900 nM in assay [3]. The MIC in assay [2] and in assay [4] (setting [5]) was 8 µg/mL (≈ 17.2 µM) throughout.
Take `CCOc1cc(Cc2cnc(N)nc2N)cc(OCC)c1-c1ccc(CN2CCCC2)cc1` [Example 04-y, 5-(2,6-Diethoxy-4′-pyrrolidin-1-ylmethyl-biphenyl-4-ylmethyl)-pyrimidine-2,4-diamine]: the IC50 turned out to be 92 nM in assay [1] (Table 2) and 890 nM in assay [3]. Besides, the MIC in assay [2] and in assay [4] (setting [5]) was 8 µg/mL (≈ 17.9 µM) each time.
With `CCOc1cc(Cc2cnc(N)nc2N)cc(OCC)c1-c1ccc(CN2CCOCC2)c(F)c1` [Example 04-z], the values for the IC50 in assay [1] (Table 2) and in assay [3] were 58 nM and 3800 nM, respectively. The MIC in assay [2] is 8 µg/mL (≈ 16.6 µM); in assay [4] (setting [5]), 4 µg/mL (≈ 8.31 µM).
The like results for `CCOc1cc(Cc2cnc(N)nc2N)cc(OCC)c1-c1cccc(OC)c1` [Example 05-a, 5-(2,6-Diethoxy-3′-methoxy-biphenyl-4-ylmethyl)-pyrimidine-2,4-diamine] were, in that order, 46 nM, 6100 nM, 8 µg/mL (≈ 20.3 µM) and 2 µg/mL (≈ 5.07 µM).
Turning to `CCOc1cc(Cc2cnc(N)nc2N)cc(OCC)c1-c1ccc(OC)cc1` [Example 05-b, 5-(2,6-Diethoxy-4′-methoxy-biphenyl-4-ylmethyl)-pyrimidine-2,4-diamine], the figures for the IC50 in assay [1] (Table 2) and in assay [3] were 40 nM and 1500 nM, respectively. The MIC worked out at 16 µg/mL (≈ 40.6 µM) in assay [2] and 4 µg/mL (≈ 10.1 µM) in assay [4] (setting [5]).
On to `CCOc1cc(Cc2cnc(N)nc2N)cc(OCC)c1-c1cccc(NC(C)=O)c1` [Example 05-c, N-[4′-(2,4-Diamino-pyrimidin-5-ylmethyl)-2′,6′-diethoxy-biphenyl-3-yl]-acetamide], for which the IC50 in assay [1] (Table 2) turned out to be 30 nM; in assay [3] it was 2600 nM. The figures for the MIC in assay [2] and in assay [4] (setting [5]) were 8 µg/mL (≈ 19 µM) and 4 µg/mL (≈ 9.49 µM), respectively.
Regarding `CCOc1cc(Cc2cnc(N)nc2N)cc(OCC)c1-c1cccc(O)c1` [Example 05-d, 4′-(2,4-Diamino-pyrimidin-5-ylmethyl)-2′,6′-diethoxy-biphenyl-3-ol], the values for the IC50 in assay [1] (Table 2) and in assay [3] were 70 nM and 3100 nM, respectively. The MIC in assay [2] was found to be 4 µg/mL (≈ 10.5 µM); in assay [4] (setting [5]), 2 µg/mL (≈ 5.26 µM).
As to `CCOc1cc(Cc2cnc(N)nc2N)cc(OCC2(CC#N)CC2)c1-c1cccc(N)c1` [Example 07-b, {1-[3′-Amino-4-(2,4-diamino-pyrimidin-5-ylmethyl)-6-ethoxy-biphenyl-2-yloxymethyl]-cydopropyl}-acetonitrile], the IC50 in assay [1] (Table 2) stood at 36 nM; in assay [3] it was 950 nM. For the same molecule, the MIC stood at 8 µg/mL (≈ 18 µM) in assay [2] and 2 µg/mL (≈ 4.5 µM) in assay [4] (setting [5]).
On the same counts, the results for `CCOc1cc(Cc2cnc(N)nc2N)cc(OCC2(COC)CC2)c1-c1cccc(N)c1` [Example 07-c, 5-[3′-Amino-6-ethoxg-2-[(1-methoxymethyl-cyclopropyl)-methoxy]-biphenyl-4-yimethyl]-pyrimidine-2,4-diamine] are 48 nM, 2200 nM, 8 µg/mL (≈ 17.8 µM) and 4 µg/mL (≈ 8.9 µM).
Take `CCOc1cc(Cc2cnc(N)nc2N)cc(OC2CCCC2)c1-c1cccc(N)c1` [Example 07-d, 5-(3′-Amino-6-cycloventloxy-2-ethoxy-biphenyl-4-ylmethyl)-pyrimidine-2,4-diamine]: the results for the IC50 in assay [1] (Table 2) and in assay [3] were 8.2 nM and 680 nM, respectively. The MIC turned out to be 4 µg/mL (≈ 9.53 µM) in assay [2] and 1 µg/mL (≈ 2.38 µM) in assay [4] (setting [5]).
For the molecule `CCOc1cc(Cc2cnc(N)nc2N)cc(OC2CCC2)c1-c1cccc(N)c1` [Example 07-e, 5-(3′-Amino-6-qdobutoxy-2-ethoxy-biphenyl-4-ylmethyl)-pyrimidine-2,4-diamine], the values for the IC50 in assay [1] (Table 2) and in assay [3] were 28 nM and 640 nM, respectively. Also, the results for the MIC in assay [2] and in assay [4] (setting [5]) were 4 µg/mL (≈ 9.86 µM) and 1 µg/mL (≈ 2.47 µM), respectively.
Regarding `CCOc1cc(Cc2cnc(N)nc2N)cc(OCC(C)(C)C=CC#N)c1-c1cccc(N)c1` [Example 07-f, (E)-5-[3′-Amino-4-(2,4-diamino-pyrimidin-5-ylmeth)-6-ethoxy-biphenyl-2-yloxy]-4,4-dimethyl-pent-2-ene-nitrile], the IC50 in assay [1] (Table 2) worked out at 55 nM; in assay [3], 750 nM. For the same molecule, the MIC in assay [2] stood at 8 µg/mL (≈ 17.4 µM); in assay [4] (setting [6]), 2 µg/mL (≈ 4.36 µM).
As for `CCOc1cc(Cc2cnc(N)nc2N)cc(OCCc2ccccn2)c1-c1cccc(N)c1` [Example 07-g, 5-[3′-Amino-6-ethoxy-2-(2-pyridin-2-yl-ethoxy)-biphenyl-4-ylmethyl]-pyrimidine-2,4-diamine], the IC50 in assay [1] (Table 2) came out at 30 nM; in assay [3], 650 nM. Moreover, the MIC in assay [2] and in assay [4] (setting [5]) was 8 µg/mL (≈ 17.5 µM) each time.
For the molecule `CCOc1cc(Cc2cnc(N)nc2N)cc(OCC(F)(F)F)c1-c1cccc(N)c1` [Example 07-i, 5-[3′-Amino-6-ethoxy-2-(2,2,2-trifluoro-ethoxy)-biphenyl-4-ylmethyl]-pyrimidine-2,4-diamine], the IC50 was determined as 28 nM in assay [1] (Table 2) and 900 nM in assay [3]. In addition, the MIC in assay [2] and in assay [4] (setting [5]) was 4 µg/mL (≈ 9.23 µM) in each case.
Take `CCOc1cc(Cc2cnc(N)nc2N)cc(OCCC2CCOCC2)c1-c1cccc(N)c1` [Example 07-j, 5-{3′-Amino-2-ethoxy-6-[2-(tetrahydro-pyran-4-yl)-ethoxy]-biphenyl-4-ylmethyl}-pyrimidine-2,4-diamine]: the IC50 was found to be 29 nM in assay [1] (Table 2) and 1300 nM in assay [3]. Also, the MIC in assay [2] is 8 µg/mL (≈ 17.3 µM); in assay [4] (setting [5]), 1 µg/mL (≈ 2.16 µM).
Take `CCOc1cc(Cc2cnc(N)nc2N)cc(OCC2CC2)c1-c1cccc(N)c1` [Example 7a, 5-(3′-Amino-6-cyclopropylmethoxy-2-ethoxy-biphenyl-4-ylmethyl)-pirimidine-2,4-diamine]: the IC50 amounted to 2.1 nM in assay [1] (Table 1) and 510 nM in assay [3] (Table 1, IC50 against purified DHFR of strain 157/4696 (highly trimethoprim-resistant; clinical isolate), read-out: DHFR Sa1). Besides, the “MIC Sa101” value in assay [2] (Table 1) was 8 µg/mL (≈ 19.7 µM). In assay [4] (Table 1, Streptococcus pneumoniae 1/1, trimethoprim- and penicillin-resistant, serotype 6, clinical isolate), the “MIC Sp1/1” value worked out at 1 µg/mL (≈ 2.47 µM).
On to `CCOc1cc(Cc2cnc(N)nc2N)cc(OCC(C)(C)COC)c1-c1ccc(O)cc1` [Example 08-a, 4′-(2,4-Diamino-pylimidin-5-ylmethyl)-6′-ethoxy-2′-(3-methoxy-2,2-dimethyl-propoxy)-biphenyl-4-ol], for which the IC50 in assay [1] (Table 2) was found to be 18 nM; in assay [3] it was 1700 nM. In addition, the MIC in assay [2] turned out to be 8 µg/mL (≈ 17.7 µM); in assay [4] (setting [5]), 2 µg/mL (≈ 4.42 µM).
As to `CCOc1cc(Cc2cnc(N)nc2N)cc(OCC(C)(C)/C=C/C#N)c1-c1ccc(O)cc1` [Example 08-b, (E)-5-[4-(2,4-Diamino-pyrimidin-5-ylmethyl)-6-ethoxy-4′-hydroxy-biphenyl-2-yloxy]-4,4-dimethyl-pent-2-ene-nitrile], the IC50 in assay [1] (Table 2) worked out at 38 nM; in assay [3] it was 950 nM. In addition, the MIC was 8 µg/mL (≈ 17.4 µM) in assay [2] and 2 µg/mL (≈ 4.35 µM) in assay [4] (setting [6]).
